{"source": "PubChem BioAssay (NCI)", "note": "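Assay format: 96-well plates, 48-hour exposure. The concentration for full growth arrest is given as TGI.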"}
{"tested_on": "UACC-62 melanoma", "assay": "NCI anticancer screen, dose series, 48 h", "units": {"TGI": "µM"}}
{"smiles": "COC(=O)C1=C(C(=O)OC)N(c2ccc(OC)cc2[N+](=O)[O-])C(c2ccc(C)cc2)=CC1c1ccc(OC)cc1OC", "note": "(stereo not drawn)", "TGI": "> 100"}
{"smiles": "O=c1[nH]nnc2c1sc1ncccc12", "TGI": "> 100"}
{"smiles": "Cc1ccc(C2SCC(=O)N2c2ccc(-n3c(-c4ccccc4)nc4ccccc4c3=O)cc2)cc1", "note": "(stereo not drawn)", "TGI": 51.5}
{"smiles": "C/C=C/C(CC(O)(C(F)(F)F)C(F)(F)F)=N/NC(N)=S", "TGI": "> 10"}
{"smiles": "Fc1ccc2c(c1)nc1n2C(c2c(Cl)cccc2Cl)SC1", "note": "(stereo not drawn)", "TGI": 26.2}
{"smiles": "CC(C)C1=CC23CCC4C(C)(C(=O)O)CCCC4(C)C2CC1C1C(=O)N(c2ccc(Cc4ccc(N5C(=O)C6C7CC8C9(C)CCCC(C)(C(=O)O)C9CCC8(C=C7C(C)C)C6C5=O)cc4)cc2)C(=O)C13", "note": "(stereo not drawn)", "TGI": 29.7}
{"smiles": "NC(N)=NS(=O)(=O)c1ccc(NNc2c3ccccc3nc3c(C(=O)Nc4ccc(S(=O)(=O)Nc5ncccn5)cc4)cccc23)cc1", "TGI": 48.2}
{"smiles": "CCOC1(OCC)C2C=CC1C(COS(=O)(=O)c1ccc(C)cc1)C2COS(=O)(=O)c1ccc(C)cc1", "note": "(stereo not drawn)", "TGI": "> 100"}
{"smiles": "Cc1[nH]c(=O)nc2nc3ccc(Cl)cc3c(NCCNCCO)c12", "TGI": 24.3}
{"smiles": "CC(C)(C)OC(=O)NC1CCCCC1NC(=O)C(=O)NC1CCCCC1NC(=O)OC(C)(C)C", "note": "(stereo not drawn)", "TGI": 92.9}
{"smiles": "N#C[C@H](c1ccccn1)c1nc2ccccc2nc1Cl", "TGI": "> 100"}
{"smiles": "Cc1c(C)c2c(c(N)c1C#N)C(=O)N(NC(=O)c1ccccc1)C2=O", "TGI": "> 100"}
{"smiles": "O=C1COc2cccnc2N1CCCCO", "TGI": "> 100"}
{"smiles": "CC(=O)OC(OC(C)=O)c1ccc2ccc3cccc4ccc1c2c34", "TGI": 27.3}
{"tested_on": "MDA-N", "assay": "NCI anticancer screen, dose series, 48 h", "units": {"TGI": "µM"}}
{"smiles": "O=C1C=CC(=O)c2c1ccc1c3ccccc3n(CCCCCn3c4ccccc4c4ccc5c(c43)C(=O)C=CC5=O)c21", "TGI": 40.1}
{"smiles": "C=C(Cl)C(=CCl)CCC(Br)C(C)(C)Cl", "note": "(mixture of isomers)", "TGI": "> 10"}
{"smiles": "O=C1C2SC34c5c2c2ccccc2n5CCC3CCCN14", "note": "(stereo not drawn)", "TGI": "> 100"}
{"smiles": "CC(=O)N(C(C)=O)c1ncc(-n2nc(-c3ccccc3)cc2-c2ccccc2)c(-c2ccccc2)n1", "TGI": 9.42}
{"smiles": "CN1C(=O)c2ccccc2OC12C=Cc1c(ccc3ccccc13)O2", "note": "(stereo not drawn)", "TGI": 10.4}
{"smiles": "CC(=O)Nc1sc(Br)cc1S(=O)(=O)c1ccc(Cl)cc1", "TGI": "> 100"}
{"smiles": "O=C1Sc2cc3ccccc3cc2C(=O)Sc2ccc(Br)cc21", "TGI": 18}
{"smiles": "O=C(/C=C/c1ccccc1)Oc1cccc(O)c1", "TGI": "> 100"}
{"smiles": "CC(C)NC(=O)OCc1c(COC(=O)NC(C)C)c(-c2cc[n+](COC(=O)C3CC3)cc2)n2c1CCC2", "TGI": "> 100"}
{"smiles": "COC(=O)C1=C(C(=O)OC)N(c2ccc(OC)cc2[N+](=O)[O-])C(c2ccc(C)cc2)=CC1c1ccc(OC)cc1OC", "note": "(stereo not drawn)", "TGI": "> 100"}
{"smiles": "O=c1[nH]nnc2c1sc1ncccc12", "TGI": "> 100"}
{"smiles": "Cc1ccc(C2SCC(=O)N2c2ccc(-n3c(-c4ccccc4)nc4ccccc4c3=O)cc2)cc1", "note": "(stereo not drawn)", "TGI": 80}
{"smiles": "C/C=C/C(CC(O)(C(F)(F)F)C(F)(F)F)=N/NC(N)=S", "TGI": "> 10"}
{"smiles": "Fc1ccc2c(c1)nc1n2C(c2c(Cl)cccc2Cl)SC1", "note": "(stereo not drawn)", "TGI": 24.5}
{"smiles": "CC(C)C1=CC23CCC4C(C)(C(=O)O)CCCC4(C)C2CC1C1C(=O)N(c2ccc(Cc4ccc(N5C(=O)C6C7CC8C9(C)CCCC(C)(C(=O)O)C9CCC8(C=C7C(C)C)C6C5=O)cc4)cc2)C(=O)C13", "note": "(stereo not drawn)", "TGI": 24.8}
{"smiles": "NC(N)=NS(=O)(=O)c1ccc(NNc2c3ccccc3nc3c(C(=O)Nc4ccc(S(=O)(=O)Nc5ncccn5)cc4)cccc23)cc1", "TGI": "> 100"}
{"smiles": "CCOC1(OCC)C2C=CC1C(COS(=O)(=O)c1ccc(C)cc1)C2COS(=O)(=O)c1ccc(C)cc1", "note": "(stereo not drawn)", "TGI": "> 100"}
{"smiles": "Cc1[nH]c(=O)nc2nc3ccc(Cl)cc3c(NCCNCCO)c12", "TGI": 25.4}
{"smiles": "CC(C)(C)OC(=O)NC1CCCCC1NC(=O)C(=O)NC1CCCCC1NC(=O)OC(C)(C)C", "note": "(stereo not drawn)", "TGI": "> 100"}
{"smiles": "COc1cc(C2c3cc4c(cc3OC(N3CCCCC3)C2C)OCO4)cc(OC)c1O", "note": "(stereo not drawn)", "TGI": 5.6}
{"smiles": "N#C[C@H](c1ccccn1)c1nc2ccccc2nc1Cl", "TGI": "> 100"}
{"smiles": "Cc1c(C)c2c(c(N)c1C#N)C(=O)N(NC(=O)c1ccccc1)C2=O", "TGI": "> 100"}
{"smiles": "O=C1COc2cccnc2N1CCCCO", "TGI": "> 100"}
{"smiles": "CC(=O)OC(OC(C)=O)c1ccc2ccc3cccc4ccc1c2c34", "TGI": 36.9}
{"tested_on": "MCF7 breast", "assay": "NCI anticancer screen, dose series, 48 h", "units": {"TGI": "µM"}}
{"smiles": "O=C1C=CC(=O)c2c1ccc1c3ccccc3n(CCCCCn3c4ccccc4c4ccc5c(c43)C(=O)C=CC5=O)c21", "TGI": 43.3}
{"smiles": "C=C(Cl)C(=CCl)CCC(Br)C(C)(C)Cl", "note": "(mixture of isomers)", "TGI": "> 10"}
{"smiles": "O=C1C2SC34c5c2c2ccccc2n5CCC3CCCN14", "note": "(stereo not drawn)", "TGI": "> 100"}
{"smiles": "CC(=O)N(C(C)=O)c1ncc(-n2nc(-c3ccccc3)cc2-c2ccccc2)c(-c2ccccc2)n1", "TGI": "> 10"}
{"smiles": "CN1C(=O)c2ccccc2OC12C=Cc1c(ccc3ccccc13)O2", "note": "(stereo not drawn)", "TGI": "> 44.6"}
{"smiles": "CC(=O)Nc1sc(Br)cc1S(=O)(=O)c1ccc(Cl)cc1", "TGI": 47.3}
{"smiles": "O=C1Sc2cc3ccccc3cc2C(=O)Sc2ccc(Br)cc21", "TGI": 37.9}
{"smiles": "O=C(/C=C/c1ccccc1)Oc1cccc(O)c1", "TGI": "> 100"}
{"smiles": "CC(C)NC(=O)OCc1c(COC(=O)NC(C)C)c(-c2cc[n+](COC(=O)C3CC3)cc2)n2c1CCC2", "TGI": "> 100"}
{"smiles": "COC(=O)C1=C(C(=O)OC)N(c2ccc(OC)cc2[N+](=O)[O-])C(c2ccc(C)cc2)=CC1c1ccc(OC)cc1OC", "note": "(stereo not drawn)", "TGI": "> 100"}
{"smiles": "O=c1[nH]nnc2c1sc1ncccc12", "TGI": "> 100"}
{"smiles": "Cc1ccc(C2SCC(=O)N2c2ccc(-n3c(-c4ccccc4)nc4ccccc4c3=O)cc2)cc1", "note": "(stereo not drawn)", "TGI": "> 100"}
{"smiles": "C/C=C/C(CC(O)(C(F)(F)F)C(F)(F)F)=N/NC(N)=S", "TGI": "> 10"}
{"smiles": "Fc1ccc2c(c1)nc1n2C(c2c(Cl)cccc2Cl)SC1", "note": "(stereo not drawn)", "TGI": 32.2}
{"smiles": "CC(C)C1=CC23CCC4C(C)(C(=O)O)CCCC4(C)C2CC1C1C(=O)N(c2ccc(Cc4ccc(N5C(=O)C6C7CC8C9(C)CCCC(C)(C(=O)O)C9CCC8(C=C7C(C)C)C6C5=O)cc4)cc2)C(=O)C13", "note": "(stereo not drawn)", "TGI": 18.9}
{"smiles": "NC(N)=NS(=O)(=O)c1ccc(NNc2c3ccccc3nc3c(C(=O)Nc4ccc(S(=O)(=O)Nc5ncccn5)cc4)cccc23)cc1", "TGI": "> 100"}
{"smiles": "CCOC1(OCC)C2C=CC1C(COS(=O)(=O)c1ccc(C)cc1)C2COS(=O)(=O)c1ccc(C)cc1", "note": "(stereo not drawn)", "TGI": "> 100"}
{"smiles": "Cc1[nH]c(=O)nc2nc3ccc(Cl)cc3c(NCCNCCO)c12", "TGI": 26.6}
{"smiles": "CC(C)(C)OC(=O)NC1CCCCC1NC(=O)C(=O)NC1CCCCC1NC(=O)OC(C)(C)C", "note": "(stereo not drawn)", "TGI": "> 100"}
{"smiles": "COc1cc(C2c3cc4c(cc3OC(N3CCCCC3)C2C)OCO4)cc(OC)c1O", "note": "(stereo not drawn)", "TGI": "> 43"}
